From patent US7915291B2, “Hepatitis C virus inhibitors” (Bristol-Myers Squibb Company, priority 2002, dated 2011)
Like-named read-outs stand apart in the source and are kept apart here.

What was measured:
[1] = target: HCV NS3/4A protease complex, BMS strain (UniProt P27958, C1454S/C1711G, species not given/STRAIN_BMS); test: Recombinant HCV NS3/4A protease complex FRET peptide assay (BMS strain); type: biochemical, HCV genotype 1a
Description: Recombinant HCV NS3/4A Protease Complex FRET Peptide Assay
The purpose of this in vitro assay was to measure the inhibition of HCV NS3 protease complexes, derived from the BMS, H77C or J416S strains, as described below, by compounds of the present invention.
Serum from an HCV-infected patient was obtained from Dr. T. Wright, San Francisco Hospital. An engineered full-length cDNA (compliment deoxyribonucleic acid) template of the HCV genome (BMS strain) was constructed from DNA fragments obtained by reverse transcription-PCR(RT-PCR) of serum RNA (ribonucleic acid) and using primers selected on the basis of homology between other genotype 1a strains.
The BMS, H77C and J4L6S strains were used for production of recombinant NS3/4A protease complexes. […] Briefly, a three-lysine solubilizing tail was added at the 3′-end of the NS4A coding region. […] Briefly, NS3/4A expression was induced with 0.5 mM Isopropyl β-D-1-thiogalactopyranoside (IPTG) for 22 hr at 20° C. […] The crude protein extract was loaded on a Nickel—Nitrilotriacetic acid (Ni-NTA) column pre-equilibrated with buffer B (25 mM HEPES, pH8.0, 20% glycerol, 500 mM NaCl, 0.5% Triton-X100, 15 mM imidazole, 5 mM βME). The sample was loaded at a flow rate of 1 mL/min. The column was washed with 15 column volumes of buffer C (same as buffer B except with 0.2% Triton-X100). The protein was eluted with 5 column volumes of buffer D (same as buffer C except with 200 mM Imidazole).
NS3/4A protease complex-containing fractions were pooled and loaded on a desalting column Superdex-S200 pre-equilibrated with buffer D (25 mM HEPES, pH7.5, 20% glycerol, 300 mM NaCl, 0.2% Triton-X100, 10 mM βME). Sample was loaded at a flow rate of 1 mL/min. NS3/4A protease complex-containing fractions were pooled and concentrated to approximately 0.5 mg/ml.
The enzyme was stored at −80° C., thawed on ice and diluted prior to use in assay buffer. […] The sequence of this peptide is loosely based on the NS4A/NS4B natural cleavage site except there is an ester linkage rather than an amide bond at the cleavage site. The peptide substrate was incubated with one of the three recombinant NS3/4A complexes, in the absence or presence of a compound of the present invention, and the formation of fluorescent reaction product was followed in real time using a Cytofluor Series 4000.
The reagents were as follow: HEPES and Glycerol (Ultrapure) were obtained from GIBCO-BRL. Dimethyl Sulfoxide (DMSO) was obtained from Sigma. β-Mercaptoethanol was obtained from Bio Rad.
Substrate: 2 μM final concentration (from a 2 mM stock solution in DMSO stored at −20° C.). HCV NS3/4A type 1a (1b), 2-3 nM final concentration (from a 5 μM stock solution in 25 mM HEPES, pH7.5, 20% glycerol, 300 mM NaCl, 0.2% Triton-X100, 10 mM βME).
The assay was performed in a 96-well polystyrene black plate from Falcon. Each well contained 25 μl NS3/4A protease complex in assay buffer, 50 μof a compound of the present invention in 10% DMSO/assay buffer and 25 μl substrate in assay buffer. A control (no compound) was also prepared on the same assay plate. The enzyme complex was mixed with compound or control solution for 1 min before initiating the enzymatic reaction by the addition of substrate. The assay plate was read immediately using the Cytofluor Series 4000 (Perspective Biosystems). The instrument was set to read an […] at 25° C. Reactions were generally followed for approximately 15 minutes.
The percent inhibition was calculated with the following equation: 100−[(δFinh/δFcon)×100] where δF is the change in fluorescence over the linear range of the curve.

[2] = test system: HCV replicon in Huh7 cells; test: HCV replicon cell-based assay; set-up: species or system HCV strain 1B; conditions: Hepatitis C virus
Description: HCV Replicon Cell-based Assay
This system enabled us to evaluate the effects of our HCV Protease compounds on HCV RNA replication. Briefly, using the HCV strain 1B sequence described in the Lohmann paper (Assession number:AJ238799), an HCV cDNA was generated encoding the 5′ internal ribosome entry site (IRES), the neomycin resistance gene, the EMCV (encephalomyocarditis virus)-IRES and the HCV nonstructural proteins, NS3-NS5B, and 3′ non-translated region (NTR). In vitro transcripts of the cDNA were transfected into the human hepatoma cell line, Huh7. […] Resulting cell lines were characterized for positive and negative strand RNA production and protein production over time.
Huh7 cells, constitutively expressing the HCV replicon, were grown in Dulbecco's Modified Eagle Media (DMEM) containing 10% Fetal calf serum (FCS) and 1 mg/ml G418 (Gibco-BRL). Cells were seeded the night before (1.5×10^4 cells/well) in 96-well tissue-culture sterile plates. Compound and no compound controls were prepared in DMEM containing 4% FCS, 1:100 Penicillin/Streptomysin, 1:100 L-glutamine and 5% DMSO in the dilution plate (0.5% DMSO final concentration in the assay). Compound/DMSO mixes were added to the cells and incubated for 4 days at 37° C. After 4 days, plates were rinsed thoroughly with Phosphate-Buffered Saline (PBS) (3 times 150 μl). The cells were lysed with 25 μl of a lysis assay reagent containing the FRET peptide (RET S1, as described for the in vitro enzyme assay). The lysis assay reagent was made from 5× cell Luciferase cell culture lysis reagent(Promega #E153A) diluted to 1× with distilled water, NaCl added to 150 mM final, the FRET peptide diluted to 10 μM final from a 2 mM stock in 100% DMSO. The plate was then placed into the Cytofluor 4000 instrument which had been set to 340 nm excitation/490 emission, automatic mode for 21 cycles and the plate read in a kinetic mode. EC50 determinations were carried out as described for the IC50 determinations.
Cells were lyzed using the Rneasy kit (Qiagen). […] All primers were designed with ABI Prism 7700 software and obtained from Biosearch Technologies, Novato, Calif. Samples containing known concentrations of HCV RNA transcript were run as standards. Using the following cycling protocol (50° C., 30 min; 95° C., 5 min; 40 cycles of 95° C., 15 sec, 60° C., 1 min), HCV RNA expression was quantitated as described in the Perkin Elmer manual using the ABI Prism 7700 Sequence Detector.

[3] = NS3/4A BMS strain; read-out: IC50 range
[4] = Huh-7, HCV replicon, Huh7 cells, read-out: EC50 range

`C=C[C@@H]1C[C@]1(NC(=O)[C@@H]1C[C@@H](Oc2nccc3cc(OC)ccc23)CN1C(=O)[C@@H](NC(=O)OC)C(C)(C)C)C(=O)NS(=O)(=O)C1CC1` [Compound 16] was tested, and the IC50 [1, 3] was less than 100 nM and the EC50 [2, 4] was 100 to 1000 nM.

Work on `C=C[C@@H]1C[C@]1(NC(=O)[C@@H]1C[C@@H](Oc2nccc3cc(OC)ccc23)CN1C(=O)[C@@H](NC(=O)OC(C)C)C(C)(C)C)C(=O)NS(=O)(=O)C1CC1` [Compound 17] yielded an IC50 [1, 3] of less than 100 nM and an EC50 [2, 4] of less than 100 nM.

`C=C[C@@H]1C[C@]1(NC(=O)[C@@H]1C[C@@H](Oc2nccc3cc(OC)ccc23)CN1C(=O)[C@@H](NC(=O)OCC(C)(C)C)C(C)(C)C)C(=O)NS(=O)(=O)C1CC1` [Compound 18] gave an IC50 [1, 3] of less than 100 nM and an EC50 [2, 4] of less than 100 nM.

With `C=C[C@@H]1C[C@]1(NC(=O)[C@@H]1C[C@@H](Oc2nccc3cc(OC)ccc23)CN1C(=O)[C@@H](NC(=O)O[C@H]1CCOC1)C(C)(C)C)C(=O)NS(=O)(=O)C1CC1` [Compound 19] the IC50 [1, 3] was less than 100 nM and the EC50 [2, 4] was less than 100 nM.

Work on `C=C[C@@H]1C[C@]1(NC(=O)[C@@H]1C[C@@H](Oc2nccc3cc(Cl)ccc23)CN1C(=O)[C@@H](NC(=O)OC(C)(C)C)C(C)(C)C)C(=O)NS(=O)(=O)C1CC1` [Compound 20] yielded an IC50 [1, 3] of less than 100 nM and an EC50 [2, 4] of 100 to 1000 nM.

`C=C[C@@H]1C[C@]1(NC(=O)[C@@H]1C[C@@H](Oc2nccc3cc(-n4cccn4)ccc23)CN1C(=O)[C@@H](NC(=O)OC(C)(C)C)C(C)(C)C)C(=O)NS(=O)(=O)C1CC1` [Compound 21] was tested, and the IC50 [1, 3] was less than 100 nM and the EC50 [2, 4] was less than 100 nM.

In the case of `C=C[C@@H]1C[C@]1(NC(=O)[C@@H]1C[C@@H](Oc2nccc3cc(Br)ccc23)CN1C(=O)[C@@H](NC(=O)OC(C)(C)C)C(C)(C)C)C(=O)NS(=O)(=O)C1CC1` [Compound 22], the IC50 [1, 3] is reported as less than 100 nM and the EC50 [2, 4] is reported as 100 to 1000 nM.

Work on `C=C[C@@H]1C[C@]1(NC(=O)[C@@H]1C[C@@H](Oc2nccc3ccccc23)CN1C(=O)[C@@H](NC(=O)OC(C)(C)C)C(C)(C)C)C(=O)NS(=O)(=O)C1CC1` [Compound 23] yielded an IC50 [1, 3] of less than 100 nM and an EC50 [2, 4] of less than 100 nM.

In the case of `C=C[C@@H]1C[C@]1(NC(=O)[C@@H]1C[C@@H](Oc2nc(Cl)cc3ccccc23)CN1C(=O)[C@@H](NC(=O)OC(C)(C)C)C(C)(C)C)C(=O)NS(=O)(=O)C1CC1` [Compound 24], the IC50 [1, 3] is reported as less than 100 nM and the EC50 [2, 4] is reported as less than 100 nM.

For `C=C[C@@H]1C[C@]1(NC(=O)[C@@H]1C[C@@H](Oc2nc(-c3ccccc3)cc3ccccc23)CN1C(=O)[C@@H](NC(=O)OC(C)(C)C)C(C)(C)C)C(=O)NS(=O)(=O)C1CC1` [Compound 25], the IC50 [1, 3] was less than 100 nM and the EC50 [2, 4] was less than 100 nM.

With `C=C[C@@H]1C[C@]1(NC(=O)[C@@H]1C[C@@H](Oc2nc(-c3ccc(OC)cc3)cc3ccccc23)CN1C(=O)[C@@H](NC(=O)OC(C)(C)C)C(C)(C)C)C(=O)NS(=O)(=O)C1CC1` [Compound 26] the IC50 [1, 3] was less than 100 nM and the EC50 [2, 4] was less than 100 nM.

Compound `C=C[C@@H]1C[C@]1(NC(=O)[C@@H]1C[C@@H](Oc2nc(-c3ccncc3)cc3ccccc23)CN1C(=O)[C@@H](NC(=O)OC(C)(C)C)C(C)(C)C)C(=O)NS(=O)(=O)C1CC1` [Compound 27] has an IC50 [1, 3] of less than 100 nM and an EC50 [2, 4] of less than 100 nM.

Compound `C=C[C@@H]1C[C@]1(NC(=O)[C@@H]1C[C@@H](Oc2nc(-c3ccc(N(C)C)cc3)cc3ccccc23)CN1C(=O)[C@@H](NC(=O)OC(C)(C)C)C(C)(C)C)C(=O)NS(=O)(=O)C1CC1` [Compound 28] has an IC50 [1, 3] of less than 100 nM and an EC50 [2, 4] of less than 100 nM.

Work on `C=C[C@@H]1C[C@]1(NC(=O)[C@@H]1C[C@@H](Oc2nc(-c3ccc(C#N)cc3)cc3ccccc23)CN1C(=O)[C@@H](NC(=O)OC(C)(C)C)C(C)(C)C)C(=O)NS(=O)(=O)C1CC1` [Compound 29] yielded an IC50 [1, 3] of less than 100 nM and an EC50 [2, 4] of less than 100 nM.

For `C=C[C@@H]1C[C@]1(NC(=O)[C@@H]1C[C@@H](Oc2nc(-c3ccoc3)cc3ccccc23)CN1C(=O)[C@@H](NC(=O)OC(C)(C)C)C(C)(C)C)C(=O)NS(=O)(=O)C1CC1` [Compound 30], the IC50 [1, 3] was less than 100 nM and the EC50 [2, 4] was less than 100 nM.

`C=C[C@@H]1C[C@]1(NC(=O)[C@@H]1C[C@@H](Oc2nc(-c3cnccn3)cc3ccccc23)CN1C(=O)[C@@H](NC(=O)OC(C)(C)C)C(C)(C)C)C(=O)NS(=O)(=O)C1CC1` [Compound 31] gave an IC50 [1, 3] of less than 100 nM and an EC50 [2, 4] of less than 100 nM.

For `C=C[C@@H]1C[C@]1(NC(=O)[C@@H]1C[C@@H](Oc2nc(C#N)cc3ccccc23)CN1C(=O)[C@@H](NC(=O)OC(C)(C)C)C(C)(C)C)C(=O)NS(=O)(=O)C1CC1` [Compound 32], the IC50 [1, 3] was less than 100 nM and the EC50 [2, 4] was less than 100 nM.

Work on `C=C[C@@H]1C[C@]1(NC(=O)[C@@H]1C[C@@H](Oc2nc(C)cc3ccccc23)CN1C(=O)[C@@H](NC(=O)OC(C)(C)C)C(C)(C)C)C(=O)NS(=O)(=O)C1CC1` [Compound 33] yielded an IC50 [1, 3] of less than 100 nM and an EC50 [2, 4] of less than 100 nM.

`C=C[C@@H]1C[C@]1(NC(=O)[C@@H]1C[C@@H](Oc2nc(OC)cc3ccccc23)CN1C(=O)[C@@H](NC(=O)OC(C)(C)C)C(C)(C)C)C(=O)NS(=O)(=O)C1CC1` [Compound 35] showed an IC50 [1, 3] of less than 100 nM and an EC50 [2, 4] of less than 100 nM.

Work on `C=C[C@@H]1C[C@]1(NC(=O)[C@@H]1C[C@@H](Oc2nc(-c3ccccc3)cc3cc(OC)ccc23)CN1C(=O)[C@@H](NC(=O)OC(C)(C)C)C(C)(C)C)C(=O)NS(=O)(=O)C1CC1` [Compound 36] yielded an IC50 ([1]; read-out: IC50 range; NS3/4A BMS strain) of less than 100 nM and an EC50 ([2]; Huh-7, read-out: EC50 range) of less than 100 nM.

In the case of `C=C[C@@H]1C[C@]1(NC(=O)[C@@H]1C[C@@H](Oc2nc(-c3nccs3)cc3cc(OC)ccc23)CN1C(=O)[C@@H](NC(=O)OC(C)(C)C)C(C)(C)C)C(=O)NS(=O)(=O)C1CC1` [Compound 37], the IC50 [1, 3] is reported as less than 100 nM and the EC50 [2, 4] is reported as less than 100 nM.

`C=C[C@@H]1C[C@]1(NC(=O)[C@@H]1C[C@@H](Oc2nc(-c3cc(OC)no3)cc3cc(OC)ccc23)CN1C(=O)[C@@H](NC(=O)OC(C)(C)C)C(C)(C)C)C(=O)NS(=O)(=O)C1CC1` [Compound 38] showed an IC50 [1, 3] of less than 100 nM and an EC50 [2, 4] of less than 100 nM.
